Data set [1] concerns the target T1, human M1 muscarinic acetylcholine receptor (hM1R) (Homo sapiens, UniProt P11229).
T1 construct: host or cells: CHO cells
Put plainly: M1 (h) functional GPCR assay, agonist effect, intracellular Ca2+. As to conditions: 100 µM; % of control response to 100-nM acetylcholine; CHO cells. The class given is cell-based.

In data set [2] the target is T2, recombinant human monoamine oxidase A (hMAO-A) (Homo sapiens, UniProt P21397).
T2 sequence (P21397 1-527): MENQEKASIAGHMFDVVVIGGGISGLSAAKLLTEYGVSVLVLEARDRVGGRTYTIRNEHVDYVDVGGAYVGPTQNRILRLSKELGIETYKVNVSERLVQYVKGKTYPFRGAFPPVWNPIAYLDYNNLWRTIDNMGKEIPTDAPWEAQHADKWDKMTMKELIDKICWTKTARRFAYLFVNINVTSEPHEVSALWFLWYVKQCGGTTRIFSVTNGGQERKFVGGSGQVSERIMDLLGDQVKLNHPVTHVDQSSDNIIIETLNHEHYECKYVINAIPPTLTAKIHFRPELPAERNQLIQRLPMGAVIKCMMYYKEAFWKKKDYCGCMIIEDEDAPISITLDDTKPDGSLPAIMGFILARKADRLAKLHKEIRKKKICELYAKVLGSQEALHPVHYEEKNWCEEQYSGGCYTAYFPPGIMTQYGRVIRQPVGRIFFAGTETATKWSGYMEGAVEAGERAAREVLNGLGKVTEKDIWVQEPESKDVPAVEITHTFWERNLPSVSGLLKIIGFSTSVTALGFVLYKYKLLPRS
Briefly: hMAO-A inhibition, MAO-Glo chemiluminescent assay. The class given is biochemical.

The target in data set [3] is T1, human M1 muscarinic acetylcholine receptor (hM1R). Briefly: M1 (h) functional GPCR assay, antagonist effect, intracellular Ca2+. The class given is cell-based. As to conditions: CHO.
In data set [4] the target is T3, human M3 muscarinic acetylcholine receptor (hM3R) (Homo sapiens, UniProt P20309).
T3 construct: host or cells: CHO cells
Put plainly: M3 (h) functional GPCR assay, agonist effect, intracellular Ca2+. As to conditions: 100 µM; % of control response to 1-µM acetylcholine; CHO cells. The class given is cell-based.

Details of data set [5]: method as in PMID 31943245. As to conditions: rats, cited from earlier work.
Data set [6] addresses T4, human M2 muscarinic acetylcholine receptor (hM2R) (Homo sapiens, UniProt P08172).
T4 construct: host or cells: CHO cells
T4 sequence (P08172 1-466): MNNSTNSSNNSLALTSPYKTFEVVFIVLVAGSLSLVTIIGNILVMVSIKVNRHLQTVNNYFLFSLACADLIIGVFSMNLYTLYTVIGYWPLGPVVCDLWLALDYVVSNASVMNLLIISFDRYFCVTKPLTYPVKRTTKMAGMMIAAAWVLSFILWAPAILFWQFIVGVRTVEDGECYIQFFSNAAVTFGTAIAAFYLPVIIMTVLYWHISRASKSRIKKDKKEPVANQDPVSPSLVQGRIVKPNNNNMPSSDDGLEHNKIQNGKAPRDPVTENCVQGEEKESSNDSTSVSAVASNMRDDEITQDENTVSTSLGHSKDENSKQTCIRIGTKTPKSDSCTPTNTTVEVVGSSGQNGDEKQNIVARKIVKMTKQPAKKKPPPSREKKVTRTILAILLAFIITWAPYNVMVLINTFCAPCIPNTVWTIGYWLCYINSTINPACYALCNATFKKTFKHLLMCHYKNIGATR
Put plainly: M2 (h) functional GPCR assay, antagonist effect, cAMP HTRF. Type of data set: cell-based. The note with it: CHO. Background: TR-FRET usually uses a lanthanide donor and a delayed reading to cut background.

Data set [7] deals with T2, recombinant human monoamine oxidase A (hMAO-A). Put plainly: hMAO-A enzyme kinetics (Lineweaver-Burk, Dixon, secondary plots). Type of data set: biochemical. As to conditions: for Ki: hMAO-A, from secondary plots; for Inhibition Type, hMAO-A: Lineweaver-Burk and Dixon plots.
The target in data set [8] is T5, human M5 muscarinic acetylcholine receptor (hM5R) (Homo sapiens, UniProt P08912).
T5 construct: host or cells: RBL (rat basophilic leukemic) cells
T5 sequence (P08912 1-532): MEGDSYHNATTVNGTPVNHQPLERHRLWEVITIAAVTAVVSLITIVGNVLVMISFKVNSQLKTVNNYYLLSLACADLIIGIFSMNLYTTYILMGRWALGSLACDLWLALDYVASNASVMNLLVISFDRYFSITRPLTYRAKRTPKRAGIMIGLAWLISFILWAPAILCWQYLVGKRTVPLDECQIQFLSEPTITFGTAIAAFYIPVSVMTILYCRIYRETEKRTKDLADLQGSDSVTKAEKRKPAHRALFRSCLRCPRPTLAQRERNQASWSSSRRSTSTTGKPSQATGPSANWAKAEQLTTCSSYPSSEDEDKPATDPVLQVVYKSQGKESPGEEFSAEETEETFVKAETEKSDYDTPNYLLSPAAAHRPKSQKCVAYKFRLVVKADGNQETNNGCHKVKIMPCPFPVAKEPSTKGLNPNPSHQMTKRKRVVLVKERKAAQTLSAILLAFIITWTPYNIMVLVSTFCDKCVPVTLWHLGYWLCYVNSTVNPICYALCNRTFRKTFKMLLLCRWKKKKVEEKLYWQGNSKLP
Briefly: M5 (h) functional GPCR assay, antagonist effect, intracellular Ca2+. The class given is cell-based. As to conditions: RBL.

The source of these data is article PMC8301926 (Biomolecules, 2021).

Values joined by “and” are separate entries in the source; they are usually repeats but may differ in a detail not shown here. Equal entries are not always repeated.

As a reminder, the IC50 is the point on the concentration scale where inhibition reaches its midpoint. The term inhibition denotes the change of the read-out against control, counted positive when it falls. Usually Ki stands for the equilibrium dissociation constant of an inhibitor or competing ligand from its target.

T1 sequence (P11229 whole entry): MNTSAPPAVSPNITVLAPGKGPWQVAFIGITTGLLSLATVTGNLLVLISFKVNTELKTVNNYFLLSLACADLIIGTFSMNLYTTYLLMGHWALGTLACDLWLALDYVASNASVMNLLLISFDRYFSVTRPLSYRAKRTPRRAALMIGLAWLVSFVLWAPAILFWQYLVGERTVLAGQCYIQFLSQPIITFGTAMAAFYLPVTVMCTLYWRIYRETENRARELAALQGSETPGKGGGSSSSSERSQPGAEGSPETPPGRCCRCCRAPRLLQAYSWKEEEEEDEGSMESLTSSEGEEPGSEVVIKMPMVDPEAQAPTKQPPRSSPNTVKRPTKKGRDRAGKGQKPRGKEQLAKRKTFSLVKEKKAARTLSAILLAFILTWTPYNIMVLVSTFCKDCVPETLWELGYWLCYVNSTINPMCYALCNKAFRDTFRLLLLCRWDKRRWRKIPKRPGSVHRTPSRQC
T3 sequence (P20309 whole entry): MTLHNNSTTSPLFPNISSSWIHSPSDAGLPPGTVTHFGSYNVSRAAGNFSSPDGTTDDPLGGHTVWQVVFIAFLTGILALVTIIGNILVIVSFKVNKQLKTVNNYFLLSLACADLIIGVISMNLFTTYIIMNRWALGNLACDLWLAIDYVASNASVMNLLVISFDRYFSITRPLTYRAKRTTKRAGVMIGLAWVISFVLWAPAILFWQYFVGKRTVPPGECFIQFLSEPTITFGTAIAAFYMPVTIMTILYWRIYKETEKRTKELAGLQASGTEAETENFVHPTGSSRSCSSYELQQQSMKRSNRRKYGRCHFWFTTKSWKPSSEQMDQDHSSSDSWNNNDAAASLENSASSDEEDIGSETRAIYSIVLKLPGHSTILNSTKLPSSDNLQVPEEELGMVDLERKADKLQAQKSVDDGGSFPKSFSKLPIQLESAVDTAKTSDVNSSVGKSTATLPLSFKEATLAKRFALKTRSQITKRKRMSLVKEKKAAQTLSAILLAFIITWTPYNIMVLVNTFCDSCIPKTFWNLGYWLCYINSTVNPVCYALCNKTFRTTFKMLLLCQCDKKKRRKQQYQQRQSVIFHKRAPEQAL

`Cc1coc2c1C(=O)C(=O)c1c-2ccc2c(C)cccc12` [Tanshinone I]: the “% Stimulation, M1” value in data set [1] was determined as 2.5 ± 0.21%. Also, the IC50 in data set [2] (IC50, hMAO-A, mean ± SD of triplicate experiments) was < 10000 nM and 2620 nM. Moreover, the “SI (selectivity index)” value in data set [2] (ratio of the IC50 value for hMAO-A inhibition to that for hMAO-B inhibition) is listed as 0.11. The results for the inhibition at 100 µM in data set [3], in data set [6] and in data set [8] were 13.8 ± 1.98%, 35.8 ± 4.74% and -0.5 ± 0.42%, respectively. For the same compound, in data set [4], the “% Stimulation, M3” value is recorded as −2.3 ± 0.21%. In addition, in data set [5] (after oral administration), the tissue distribution entry is “distribution of 1 into the brain”. Also, the half-life entry in data set [5] (oral administration, among tanshinones 1, 2, 3, and Dtan I) is reported as “most extended half-life”. Moreover, the figures for the Ki in data set [7] (Kic) and in data set [7] (Kiu) were 1.69 ± 0.19 µM and 4.65 ± 0.16 µM, respectively. The entries for the “Inhibition Type, hMAO-A” value in data set [7] and in data set [7] (listed as 1) were “Mixed” and “mixed-mode”, respectively.
